From patent publication US20250346597A1, “CONDENSED HETEROCYCLIC COMPOUNDS AS INHIBITOR OF DIACYLGLYCEROL KINASES” (BEONE MEDICINES I GMBH, priority 2023, published 2025)

How the values were obtained:
DGKζ = DGKζ (Homo sapiens (Human), UniProt Q13574); assay: Biochemical DGK IC50 assay (ADP-Glo, lipid micelle substrate), DGKζ; conditions: full length DGKζ 0.5 nM, ATP 140 μM, DAG 80 μM
Procedure, shortened: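 ADP-Glo luminescence measured ADP made in a 1 h room-temperature reaction. The enzyme was Sf9-expressed, purified full-length human DGKζ, and the substrate was DAG/PS micelles. Assay buffer held 50 mM HEPES, 10 mM MgCl2, 0.01 mM CaCl2, 0.1 mM Na3VO4 and 0.01% BSA. IC50 was derived from activity inhibition over a compound concentration series.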

DGKα = DGKα (Homo sapiens (Human), UniProt P23743); assay: Biochemical DGK IC50 assay (ADP-Glo, lipid micelle substrate), DGKα; conditions: full length DGKα […], ATP 140 μM, DAG 80 μM; further: full length DGKα 7.5 nM
Procedure, shortened: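 Luminescent ADP-Glo detection followed a 1 h room-temperature reaction of full-length DGKα on DAG/PS micelles, in HEPES buffer with 10 mM MgCl2, 0.01 mM CaCl2, 0.1 mM Na3VO4, BSA and Tween-20. IC50 derived from inhibition across increasing compound concentrations.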

DGKζ, sequence (Q13574 other isoform, or with tags, fused parts or gaps): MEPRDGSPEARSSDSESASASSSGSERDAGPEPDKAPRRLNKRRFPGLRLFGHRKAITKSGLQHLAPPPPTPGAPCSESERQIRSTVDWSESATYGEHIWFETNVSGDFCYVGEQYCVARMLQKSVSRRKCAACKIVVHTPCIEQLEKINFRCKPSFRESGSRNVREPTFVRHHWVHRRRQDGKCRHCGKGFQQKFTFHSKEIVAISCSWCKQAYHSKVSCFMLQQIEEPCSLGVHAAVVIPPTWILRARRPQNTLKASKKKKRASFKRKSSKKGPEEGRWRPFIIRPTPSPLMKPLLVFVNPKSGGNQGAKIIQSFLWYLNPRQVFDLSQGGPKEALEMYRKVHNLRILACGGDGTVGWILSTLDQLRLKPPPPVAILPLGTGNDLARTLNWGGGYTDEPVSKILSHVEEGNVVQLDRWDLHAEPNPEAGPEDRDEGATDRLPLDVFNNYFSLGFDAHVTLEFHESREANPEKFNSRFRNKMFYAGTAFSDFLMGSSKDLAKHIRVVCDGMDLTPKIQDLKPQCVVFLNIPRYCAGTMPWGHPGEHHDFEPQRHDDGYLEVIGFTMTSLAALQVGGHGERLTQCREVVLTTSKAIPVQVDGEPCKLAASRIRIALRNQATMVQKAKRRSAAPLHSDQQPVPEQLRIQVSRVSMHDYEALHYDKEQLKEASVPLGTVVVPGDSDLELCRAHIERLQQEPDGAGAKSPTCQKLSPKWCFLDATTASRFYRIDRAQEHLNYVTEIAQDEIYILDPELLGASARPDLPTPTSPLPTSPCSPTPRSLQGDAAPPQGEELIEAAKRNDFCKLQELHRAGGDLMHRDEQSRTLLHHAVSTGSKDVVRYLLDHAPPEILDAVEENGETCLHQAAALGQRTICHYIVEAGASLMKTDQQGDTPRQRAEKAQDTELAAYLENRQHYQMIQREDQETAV
DGKα, sequence (P23743 whole entry): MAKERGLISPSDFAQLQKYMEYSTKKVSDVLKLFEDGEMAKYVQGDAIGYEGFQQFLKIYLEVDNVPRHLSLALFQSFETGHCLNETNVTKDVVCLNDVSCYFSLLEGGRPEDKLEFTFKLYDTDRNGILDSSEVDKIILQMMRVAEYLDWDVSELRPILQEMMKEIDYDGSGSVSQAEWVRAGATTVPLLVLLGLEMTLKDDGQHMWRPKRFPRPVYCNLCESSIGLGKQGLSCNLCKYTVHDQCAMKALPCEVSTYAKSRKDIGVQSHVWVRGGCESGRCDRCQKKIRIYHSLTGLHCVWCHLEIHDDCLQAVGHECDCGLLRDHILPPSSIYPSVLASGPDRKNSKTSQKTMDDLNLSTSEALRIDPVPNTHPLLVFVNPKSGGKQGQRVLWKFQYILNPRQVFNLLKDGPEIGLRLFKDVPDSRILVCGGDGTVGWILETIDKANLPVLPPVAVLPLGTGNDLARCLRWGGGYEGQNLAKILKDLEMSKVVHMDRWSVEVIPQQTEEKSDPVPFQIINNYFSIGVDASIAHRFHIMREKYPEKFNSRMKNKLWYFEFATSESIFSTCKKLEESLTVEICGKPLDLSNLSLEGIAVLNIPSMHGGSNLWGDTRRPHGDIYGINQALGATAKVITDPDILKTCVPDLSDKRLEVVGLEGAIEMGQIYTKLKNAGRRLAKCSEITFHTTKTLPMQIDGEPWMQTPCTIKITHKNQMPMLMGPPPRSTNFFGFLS

SMILES: CC[C@H]1CN(C(C)c2ccn3nc(F)cc3n2)[C@H](CC)CN1c1cc(=O)n(C)c2cn(CC#N)nc12 (single isomer, unassigned) [Compound A158a]
- IC50 (DGKζ): > 10000 nM
- IC50 (DGKα): 330 nM

SMILES: CC[C@H]1CN(C(C)c2ccn3nc(F)cc3n2)[C@H](CC)CN1c1cc(=O)n(C)c2cn(CC#N)nc12 (single isomer, unassigned) [Compound A158b]
- IC50 (DGKζ): 91 nM
- IC50 (DGKα): 21 nM

SMILES: CC[C@H]1CN(C(C)c2ccn3nccc3c2)[C@H](CC)CN1c1nc(=O)n(C)c2cn(CC#N)nc12 (single isomer, unassigned) [Compound A159a]
- IC50 (DGKζ): 56 nM
- IC50 (DGKα): 38 nM

SMILES: CC[C@H]1CN(C(C)c2ccn3nccc3c2)[C@H](CC)CN1c1nc(=O)n(C)c2cn(CC#N)nc12 (single isomer, unassigned) [Compound A159b]
- IC50 (DGKζ): 1120 nM
- IC50 (DGKα): 40 nM

SMILES: CC[C@H]1CN(C(C)c2ccn3nc(C)c(F)c3n2)[C@H](CC)CN1c1cc(=O)n(C)c2cn(CC#N)nc12 (single isomer, unassigned) [Compound A160a]
- IC50 (DGKζ): 4120 nM
- IC50 (DGKα): 5970 nM

SMILES: CC[C@H]1CN(C(C)c2ccn3nc(C)c(F)c3n2)[C@H](CC)CN1c1cc(=O)n(C)c2cn(CC#N)nc12 (single isomer, unassigned) [Compound A160b]
- IC50 (DGKζ): 15 nM
- IC50 (DGKα): 47 nM

SMILES: CC[C@H]1CN(C(C)c2ccn3ncc(F)c3n2)[C@H](CC)CN1c1cc(=O)n(C)c2cn(CC#N)nc12 (single isomer, unassigned) [Compound A161a]
- IC50 (DGKζ): > 10000 nM
- IC50 (DGKα): > 10000 nM

SMILES: CC[C@H]1CN(C(C)c2ccn3ncc(F)c3n2)[C@H](CC)CN1c1cc(=O)n(C)c2cn(CC#N)nc12 (single isomer, unassigned) [Compound A161b]
- IC50 (DGKζ): 18 nM
- IC50 (DGKα): 32 nM

SMILES: CC[C@H]1CN(C(C)c2ccn3nc(C)cc3c2)[C@H](CC)CN1c1cc(=O)n(C)c2cn(CC#N)nc12 (single isomer, unassigned) [Compound A162a]
- IC50 (DGKζ): 51 nM
- IC50 (DGKα): 104 nM

SMILES: CC[C@H]1CN(C(C)c2ccn3nc(C)cc3c2)[C@H](CC)CN1c1cc(=O)n(C)c2cn(CC#N)nc12 (single isomer, unassigned) [Compound A162b]
- IC50 (DGKζ): 3270 nM
- IC50 (DGKα): 2430 nM

SMILES: CC[C@H]1CN(C(C)c2ccn3nccc3n2)[C@H](CC)CN1c1nc(=O)n(C)c2cn(CC#N)nc12 (single isomer, unassigned) [Compound A163a]
- IC50 (DGKζ): > 10000 nM
- IC50 (DGKα): 1900 nM

SMILES: CC[C@H]1CN(C(C)c2ccn3nccc3n2)[C@H](CC)CN1c1nc(=O)n(C)c2cn(CC#N)nc12 (single isomer, unassigned) [Compound A163b]
- IC50 (DGKζ): 426 nM
- IC50 (DGKα): 71 nM

SMILES: CC[C@H]1CN(C(C)c2ccn3ncc(F)c3n2)[C@H](CC)CN1c1nc(=O)n(C)c2cn(CC#N)nc12 (single isomer, unassigned) [Compound A164a]
- IC50 (DGKζ): > 10000 nM
- IC50 (DGKα): 7300 nM

SMILES: CC[C@H]1CN(C(C)c2ccn3ncc(F)c3n2)[C@H](CC)CN1c1nc(=O)n(C)c2cn(CC#N)nc12 (single isomer, unassigned) [Compound A164b]
- IC50 (DGKζ): 88 nM
- IC50 (DGKα): 134 nM

SMILES: CC[C@H]1CN(C(C)c2ccn3ncc(F)c3c2)[C@H](CC)CN1c1cc(=O)n(C)c2cn(CC#N)nc12 (single isomer, unassigned) [Compound A165a]
- IC50 (DGKζ): 12 nM
- IC50 (DGKα): 96 nM

SMILES: CC[C@H]1CN(C(C)c2ccn3ncc(F)c3c2)[C@H](CC)CN1c1cc(=O)n(C)c2cn(CC#N)nc12 (single isomer, unassigned) [Compound A165b]
- IC50 (DGKζ): 1580 nM
- IC50 (DGKα): 2440 nM

SMILES: CC[C@@H]1CN(c2cc(=O)n(C)c3cn(CC#N)nc23)[C@@H](C)CN1C(C)c1ccn2nccc2n1 (single isomer, unassigned) [Compound A166a]
- IC50 (DGKζ): 227 nM
- IC50 (DGKα): 93 nM

SMILES: CC[C@@H]1CN(c2cc(=O)n(C)c3cn(CC#N)nc23)[C@@H](C)CN1C(C)c1ccn2nccc2n1 (single isomer, unassigned) [Compound A166b]
- IC50 (DGKζ): > 10000 nM
- IC50 (DGKα): 1630 nM

SMILES: CC[C@H]1CN(C(C)c2ccc3ncc(Cl)n3n2)[C@H](CC)CN1c1cc(=O)n(C)c2cn(CC#N)nc12 (single isomer, unassigned) [Compound A167a]
- IC50 (DGKζ): > 10000 nM
- IC50 (DGKα): > 10000 nM

SMILES: CC[C@H]1CN(C(C)c2ccc3ncc(Cl)n3n2)[C@H](CC)CN1c1cc(=O)n(C)c2cn(CC#N)nc12 (single isomer, unassigned) [Compound A167b]
- IC50 (DGKζ): 23 nM
- IC50 (DGKα): 219 nM

SMILES: CC[C@H]1CN(C(C)c2ccc3ncc(F)n3n2)[C@H](CC)CN1c1cc(=O)n(C)c2cn(CC#N)nc12 (single isomer, unassigned) [Compound A168a]
- IC50 (DGKζ): 3600 nM
- IC50 (DGKα): 3410 nM

SMILES: CC[C@H]1CN(C(C)c2ccc3ncc(F)n3n2)[C@H](CC)CN1c1cc(=O)n(C)c2cn(CC#N)nc12 (single isomer, unassigned) [Compound A168b]
- IC50 (DGKζ): 69 nM
- IC50 (DGKα): 54 nM

SMILES: CC[C@H]1CN(C(C)c2ccn3nc(C)c(F)c3c2)[C@H](CC)CN1c1cc(=O)n(C)c2cn(CC#N)nc12 (single isomer, unassigned) [Compound A169a]
- IC50 (DGKζ): 211 nM
- IC50 (DGKα): 3210 nM

SMILES: CC[C@H]1CN(C(C)c2ccn3nc(C)c(F)c3c2)[C@H](CC)CN1c1cc(=O)n(C)c2cn(CC#N)nc12 (single isomer, unassigned) [Compound A169b]
- IC50 (DGKζ): 9280 nM
- IC50 (DGKα): > 10000 nM

SMILES: CC[C@H]1CN(C(C)c2ccn3nc(C)c(F)c3n2)[C@H](CC)CN1c1nc(=O)n(C)c2cn(CC#N)nc12 (single isomer, unassigned) [Compound A170a]
- IC50 (DGKζ): > 10000 nM
- IC50 (DGKα): > 10000 nM

SMILES: CC[C@H]1CN(C(C)c2ccn3nc(C)c(F)c3n2)[C@H](CC)CN1c1nc(=O)n(C)c2cn(CC#N)nc12 (single isomer, unassigned) [Compound A170b]
- IC50 (DGKζ): 52.5 nM
- IC50 (DGKα): 109 nM

SMILES: CCC(c1ccn2nc(C)cc2n1)N1C[C@H](C)N(c2cc(=O)n(C)c3cn(CC#N)nc23)C[C@H]1CC (single isomer, unassigned) [Compound A171a]
- IC50 (DGKζ): 116 nM
- IC50 (DGKα): 107 nM

SMILES: CCC(c1ccn2nc(C)cc2n1)N1C[C@H](C)N(c2cc(=O)n(C)c3cn(CC#N)nc23)C[C@H]1CC (single isomer, unassigned) [Compound A171b]
- IC50 (DGKζ): 5430 nM
- IC50 (DGKα): 2690 nM

SMILES: CC[C@@H]1CN(c2cc(=O)n(C)c3cn(CC#N)nc23)[C@@H](C)CN1C(C)c1ccn2nc(C)cc2n1 (single isomer, unassigned) [Compound A172a]
- IC50 (DGKζ): 108 nM
- IC50 (DGKα): 158 nM

SMILES: CC[C@@H]1CN(c2cc(=O)n(C)c3cn(CC#N)nc23)[C@@H](C)CN1C(C)c1ccn2nc(C)cc2n1 (single isomer, unassigned) [Compound A172b]
- IC50 (DGKζ): > 10000 nM
- IC50 (DGKα): 7830 nM

SMILES: CC[C@@H]1CN(c2cc(=O)n(C)c3cn(CC#N)nc23)[C@@H](C)CN1[C@@H](C)c1ccn2nc(C)c(F)c2n1 (single isomer, unassigned) [Compound A173a]
- IC50 (DGKζ): 19 nM
- IC50 (DGKα): 168 nM

SMILES: CC[C@@H]1CN(c2cc(=O)n(C)c3cn(CC#N)nc23)[C@@H](C)CN1[C@H](C)c1ccn2nc(C)c(F)c2n1 (single isomer, unassigned) [Compound A173b]
- IC50 (DGKζ): 2950 nM
- IC50 (DGKα): > 10000 nM

SMILES: CC[C@H]1CN(C(C)c2ccc3ncc(Cl)n3n2)[C@H](CC)CN1c1nc(=O)n(C)c2cn(CC#N)nc12 (single isomer, unassigned) [Compound A174a]
- IC50 (DGKζ): 8850 nM
- IC50 (DGKα): 6470 nM

SMILES: CC[C@H]1CN(C(C)c2ccc3ncc(Cl)n3n2)[C@H](CC)CN1c1nc(=O)n(C)c2cn(CC#N)nc12 (single isomer, unassigned) [Compound A174b]
- IC50 (DGKζ): 8.9 nM
- IC50 (DGKα): 53 nM

SMILES: CC(c1cc2c(cc1F)OCC(C)(C)O2)N1C[C@H](C)N(c2cc(=O)n(C)c3cn(CC#N)nc23)C[C@H]1C (single isomer, unassigned) [Compound A179a]
- IC50 (DGKζ): 1410 nM
- IC50 (DGKα): 15900 nM

SMILES: CC(c1cc2c(cc1F)OCC(C)(C)O2)N1C[C@H](C)N(c2cc(=O)n(C)c3cn(CC#N)nc23)C[C@H]1C (single isomer, unassigned) [Compound A179b]
- IC50 (DGKζ): 323 nM
- IC50 (DGKα): 3190 nM

SMILES: CC[C@H]1CN(C(C)c2ccc3cnncc3c2)[C@H](CC)CN1c1cc(=O)n(C)c2cn(CC#N)nc12 (single isomer, unassigned) [Compound A186a]
- IC50 (DGKζ): 841 nM
- IC50 (DGKα): 53 nM

SMILES: CC[C@H]1CN(C(C)c2ccc3cnncc3c2)[C@H](CC)CN1c1cc(=O)n(C)c2cn(CC#N)nc12 (single isomer, unassigned) [Compound A186b]
- IC50 (DGKζ): > 10000 nM
- IC50 (DGKα): 1220 nM

SMILES: CC[C@H]1CN(C(C)c2ccc(N)nc2)[C@H](CC)CN1c1cc(=O)n(C)c2cn(CC#N)nc12 (single isomer, unassigned) [Compound A187a]
- IC50 (DGKζ): > 10000 nM
- IC50 (DGKα): 1990 nM

SMILES: CC[C@H]1CN(C(C)c2ccc(CN3CCC(OC)CC3)cc2)[C@H](CC)CN1c1cc(=O)n(C)c2cn(CC#N)nc12 (single isomer, unassigned) [Compound A189a]
- IC50 (DGKζ): 2190 nM
- IC50 (DGKα): 1080 nM

SMILES: CC[C@H]1CN(C(C)c2ccc(CN3CCC(OC)CC3)cc2)[C@H](CC)CN1c1cc(=O)n(C)c2cn(CC#N)nc12 (single isomer, unassigned) [Compound A189b]
- IC50 (DGKζ): 8540 nM
- IC50 (DGKα): 11800 nM

SMILES: CC[C@H]1CN(C(C)c2ccc(C(=O)NC)cc2)[C@H](CC)CN1c1cc(=O)n(C)c2cn(CC#N)nc12 (single isomer, unassigned) [Compound A193a]
- IC50 (DGKζ): 2870 nM
- IC50 (DGKα): 515 nM

SMILES: CC[C@H]1CN(C(C)c2ccc(C(=O)NC)cc2)[C@H](CC)CN1c1cc(=O)n(C)c2cn(CC#N)nc12 (single isomer, unassigned) [Compound A193b]
- IC50 (DGKζ): > 10000 nM
- IC50 (DGKα): 6510 nM
